Laboratory results taken from a melting point compilation (Tetko et al.; mined from patent text by program, amines drawn as free bases though some values may be those of a salt).

Point of comparison: COC(=O)CCCc1cc2nc(Cl)ccc2n1S(=O)(=O)c1ccc(Cl)cc1, melting point 108 °C. Against it:
- Nc1ccc(O)c2c1C(=O)c1c(N)ccc(O)c1C2=O — higher, 290 °C
- CCOC(=O)C(C)(C)Oc1ccc(OCc2ccccc2)cc1C=O — lower, 65 °C
- CCCC(=O)NCCC1CCc2c(OC)ccc3ccc(OC)c1c23 (stereo not drawn) — lower, 99 °C
- CCOC(=O)c1c(C)[nH]c2ccc(C(=O)c3c(C)c(OC)c4ccccn34)cc2c1=O — higher, 257 °C
- OC/C=C/C=C(c1ccccc1)c1ccccc1 — lower, 71 to 72 °C
- O=C(O)c1ccc(S(=O)(=O)Oc2ccc(-c3ccc(-c4c(Cc5ccccc5)sc5ccccc45)cc3)cc2Br)cc1O — higher, 117 to 119 °C
- O=[N+]([O-])c1cccc2nc3c(nc12)OCC1CCCCN31 (stereo not drawn) — higher, 205 to 207 °C
- Cn1ccnc1Sc1cc(Cl)ccc1[N+](=O)[O-] — higher, 130 to 131 °C
- CC(=O)NC(=O)c1cccc(-c2noc(-c3ccccc3F)n2)c1 — higher, 119 to 120 °C
- C[C@H]([C@](O)(Cn1cncn1)c1ccc(F)cc1F)S(=O)(=O)N1CCOCC1 — higher, 157 to 158 °C
- Cc1cccc(Nc2cc(Nc3cccc(OCC(O)CN(C)C)c3)ncn2)c1 (stereo not drawn) — higher, 120 to 122 °C
- Cc1cc(C2=CCCCC2)c(OP2OCC(C)(C)CO2)c(C(C)(C)C)c1 — lower, 97 to 102 °C
- O=C1NC(=O)C(Cc2ccc(OCc3nc4cccnc4n3Cc3ccc(-c4ccccc4)cc3)cc2)S1 (stereo not drawn) — higher, 189 to 191 °C
- COc1cc(C(=O)N(C)C)ccc1OCCCN1CCC(c2noc3cc(F)ccc23)CC1 — higher, 126 to 127 °C
- CCCCc1cc(C#N)sc1-c1ccc2c(c1)C(C)(C)OC(=S)N2 — higher, 174 to 175 °C
- Cc1cc(C)c2cccc(OCc3c(Cl)ccc(S(=O)(=O)N4CCC[C@H]4C(=O)NCCCN(C)C(=O)OC(C)(C)C)c3Cl)c2n1 — lower, 80 °C
- CC(C)(C)OC(=O)NC[C@H](O)CC(=O)NN — higher, 144 °C
- COc1snc(OCC#CI)c1C#N — higher, 159 to 160 °C
- CC(=O)OCC1CCn2c(c(C3=C(c4cn(C)c5ccccc45)C(=O)OC3=O)c3ccccc32)C1 (stereo not drawn) — higher, 174 to 178 °C
- Cc1cc(NCCNCC(O)COc2ccccc2)c2ccccc2n1 (stereo not drawn) — higher, 151 to 152 °C
- CCN1C(=O)N(CC2CC2)c2ccc(Cl)cc2C1c1ccccc1 (stereo not drawn) — lower, 88 to 90 °C
- COC(=O)c1nc(-c2ccc(Cl)c(OC)c2F)cc(NC(C)=O)c1OCc1ccccc1 — higher, 115 to 120 °C
- CCc1cccc(C)c1CNc1cc(C(=O)N2CCCC2)cc2c1nc(C)n2C — higher, 126 °C
- O=C(O)CCCOc1cccc2c1Cc1sc(SCC(c3ccccc3)c3ccccc3)nc1-2 — higher, 137 to 138 °C
- c1cnc2cccn2c1 — higher, 230 to 231 °C
- CC1=C(C(=O)OCC(Cl)(Cl)Cl)N2C(=O)C(NC(=O)Cc3ccccc3)C2SC1 (stereo not drawn) — higher, 162 °C
- O[C@H]1CC[C@@H](CCN2CCC(=C3c4ccc(F)cc4Sc4ccc(C(F)(F)F)cc43)CC2)CC1 — higher, 147 to 150 °C
- Cc1ccc(S(=O)(=O)NCC(C)NS(=O)(=O)c2ccc(C)cc2)cc1 (stereo not drawn) — lower, 105 to 107 °C
- CCOC(=O)CCC(=O)c1ccc(Cl)cc1O — lower, 68 to 69 °C
- Oc1ccc(Br)cc1Cc1ncc[nH]1 — higher, 163 to 169 °C
- COc1cc(N)c(Cl)cc1C(=O)NC[C@H]1CCN(CCCCCC(=O)c2ccccc2)C[C@H]1OC (relative stereo) — lower, 99 to 101 °C
- CC(C(=O)NO)C(=O)N(c1ccccc1)c1ccccc1 (stereo not drawn) — higher, 171 to 172 °C
- CCn1ncc2c3noc(-c4ccc(C(F)(F)F)cc4)c3cnc21 — higher, 243 to 245 °C
- O=C1C(=O)c2ccccc2C2=C1SCC1(CCN(Cc3ccc(F)cc3F)CC1)O2 — lower, 104 to 107 °C
- O=C(O)COc1cccc2c1CCC(Cc1coc(C(c3ccccc3)c3ccccc3)n1)C2 (stereo not drawn) — higher, 158 to 160 °C
- N#CCN1C(=O)SC(=Cc2ccc(OCCc3ccccc3)cc2)C1=O — higher, 155 to 157 °C
- COc1ccc(Cl)cc1CCC(=O)O — lower, 91 to 92 °C
- CCCC/C(=C\C(=O)O)c1cnc(CCCC)n1Cc1ccccc1Cl — higher, 131 to 132 °C
- Cc1cc(C)cc(NC(=O)Cc2ccc(O)cc2)c1 — higher, 183 to 185 °C
- CC(=O)n1cc(C2=CCN(C)CC2)c2cc(F)ccc21 — higher, 126 to 128 °C
- O=C1c2c(Cl)cccc2S(=O)(=O)N1Cn1nnn(-c2ccccc2)c1=S — higher, 158 to 162 °C
- CC1(C)C=NC(CC(=O)O)(NC(c2ccccc2)(c2ccccc2)c2ccccc2)S1 (stereo not drawn) — higher, 180 to 182 °C
- O=C(O)c1cc(C(=O)O)c(C(O)=NCCO)cc1C(O)=NCCO — higher, 280 to 281 °C
- CC(C)n1nc(-c2cnc(N)nc2-c2cccc(C(F)(F)F)c2)ccc1=O — higher, 164 to 165 °C
- COc1cccc(C(=Cc2ccccc2)c2cccc(OC)c2OC)c1OC — higher, 138 °C
- O=C1CCC(N2Cc3c(OCc4ccc(CN5CCN(C(=O)CCCCC6SCC7NC(=O)NC76)CC5)cc4)cccc3C2=O)C(=O)N1 (stereo not drawn) — higher, 168 to 170 °C
- CCc1ccc(C(C)=O)c(NC(C#N)c2c(Cl)cccc2Cl)c1 (stereo not drawn) — higher, 111 °C
- Clc1nccc(N2CCC3(CC2)OCc2ccccc23)c1Cl — higher, 161 °C
- CCCc1c(OCCC2Cc3cc(CC(=O)O)ccc3O2)ccc(C(C)=O)c1O (stereo not drawn) — higher, 118 to 126 °C
- C[C@@]1(CBr)OC(=O)[C@H]2CCCN2C1=O — not separable, 107 to 109 °C
- O=c1nc(-c2ccc(F)cc2)c2c([nH]1)CCCC2 — higher, 248 to 253 °C
- Cc1nc(O)c([N+](=O)[O-])c(O)n1 — higher, > 300 °C
- CCCC(=O)c1cnc2c(OC)cccc2c1Nc1sccc1C — higher, 132 to 133 °C
- COc1cc2ncnc(Nc3cccc(Cl)c3F)c2cc1OC1CCN(C(=O)CO)CC1 — higher, 196 °C
- COc1ccc(NS(=O)(=O)c2ccc(NC3=C(Cl)C(=O)c4ccccc4C3=O)cc2OC)cc1 — higher, 165 to 167 °C
- CCN(CC)C(=O)n1ccc(S(=O)(=O)c2cccc(F)c2F)n1 — lower, 78 to 81 °C
- NC(=O)c1c(F)cc(NC2CCNCC2)cc1F — higher, 166 to 168 °C
- CSc1nn2c(N)cc(C)nc2c1S(=O)(=O)c1ccccc1C — higher, > 250 °C
- O=C(O)COc1ccc2sc3ccccc3c(=O)c2c1 — higher, 207 to 212 °C
- NC(=O)c1ccc(OCCCC(=O)O)cc1 — higher, 162 to 164 °C
- CCn1c(N)c(C(N)=O)c(=O)c2cnc(Nc3ccc(C(=O)N4CCN(C)CC4)cc3)nc21 — higher, 281 °C
- Cn1nc(C(O)c2ccccn2)nc1NCCCOc1cccc(CN2CCCCC2)c1 (stereo not drawn) — higher, 152 to 154 °C
- CNC(c1nc(-c2ccc3c(c2)Nc2ccccc2S3)cs1)C(C)C (stereo not drawn) — higher, 130 °C
- CCCCOCCOc1ccc(-c2ccc3c(c2)C=C(C(=O)Nc2ccc(S(=O)Cc4nccn4CCCC(=O)OCC)cc2)CCN3CC(C)C)cc1 (stereo not drawn) — higher, 134 to 136 °C
- COc1ccc(CN(C)CCCCc2ccc(NC(=O)c3cccc4c(=O)c5ccccc5[nH]c34)cc2)cc1OC — higher, 140 °C
- O=C(O)C[C@@H](NC(=O)CN1C[C@H](c2ccccc2)Oc2ccc(NC(=O)NCc3ccccc3)cc2C1=O)c1ccccc1 — higher, 138 to 140 °C
- COC1(c2cc(F)cc(Sc3ccc(C(=NO)c4nccs4)cc3)c2)CCOCC1 — higher, 153 to 154 °C
